From patent publication US8987502B2, “Oleanolic acid amidate derivatives, preparation methods and uses thereof” (Hangzhou Bensheng Pharmaceutical Co., Ltd., priority 2011, dated 2015)
Converted amounts (≈) assume the structure as drawn.

Assays:
Kasumi-1 = experiment: MTT leukemia cell proliferation inhibition, Kasumi-1; type: cell-based; conditions: Homo sapiens; for inhibition at 16 µg/mL: Kasumi-1, 16 μg/mL compound, 72 h, read-out: IR (inhibition rate); for IC50: Kasumi-1, 72 h, MTT
Source text: (§1) Leukemia cell lines: leukemia cell lines: K562/adr (drug-resistant, chronic myeloid leukemia, CML), NB4 (acute promyelocytic leukemia, AML), Kasumi-1 (acute myeloid leukemia M2 type, AML-M2), Jurkat (acute lymphoblastic leukemia, ALL), all of which are donated by Cancer Research Institute of Zhejiang University, China; and H9 (acute lymphoblastic leukemia, ALL), which is purchased from China Center for Type Culture Collection (CCTCC).
(§2) Reagents: The standard sample of oleanolic acid (OA) is purchased from Hua Kang Pharmaceutical Raw Material Factory, Shifang City, Sichuan, China; and the amidated oleanolic acid derivatives are prepared according to the present invention.
(§3) Obtaining 6000 well-growing leukemia cells and inoculating them into wells of a 96-well cell culture plate. The culture medium is the 1640 cell culture medium containing 10% fetal bovine serum. After adding the amidated oleanolic acid derivatives of different concentrations and mixing uniformly, placing the plate in a carbon dioxide cell incubator (5% CO2) at 37° C. and incubated for 72 hours. Then the relative number of viable cells is determined by the MTT method. In this experiment, the cell proliferation inhibition rate in control group (not treated with any compound) is set as 0%.

SK-OV-3 = experiment: MTT solid tumor cell proliferation inhibition, SK-OV-3; type: cell-based, human; conditions: Homo sapiens; for inhibition at 16 µg/mL: SK-OV-3, 16 μg/mL compound, 72 h, read-out: IR (inhibition rate); for IC50: SK-OV-3, 72 h, MTT
Protocol: (§4) Human solid tumor cell lines: Hep-2 (laryngeal carcinoma), A549 (human lung cancer), CaES-17 (esophageal cancer cell), PC-3 (prostate cancer), CNE (nasopharyngeal carcinoma cell), and SK-OV-3 (ovarian cancer cell), all of which are purchased from China Center For Type Culture Collection; RKO (human colon adenocarcinoma cell), MGC 803 (human gastric cancer cell), MG63 (osteosarcoma) and U87 MG (malignant glioma cell), all of which are purchased from Fuxiang Bio-tech Co. Ltd., Shanghai, China; PANC-1 (pancreatic cancer), Hep G2 (human liver cancer cell), Becap37 (human breast cancer cell), and Hela (human cervical cancer cell), all of which are donated by Cancer Research Institute of Zhejiang University, China.
(§5) Obtaining 4000 well-growing human solid tumor cells and inoculating them into wells of a 96-well cell culture plate. The culture medium is DMEM High Glucose cell culture medium containing 10% fetal bovine serum. The plate is placed in a carbon dioxide cell incubator (5% CO2) at 37° C. for 24 hours for incubation. After being added with the amidated oleanolic acid derivatives of different concentrations and mixed uniformly, the plate is placed in a carbon dioxide cell incubator (5% CO2) at 37° C. for 72 hours for incubation. Then the relative number of the living cells is determined by the MTT method. In this experiment, the cell proliferation inhibition rate in control group (not treated with any compound) is set as 0%.

NB4 = experiment: MTT leukemia cell proliferation inhibition, NB4; type: cell-based; conditions: Homo sapiens, NB-4; for inhibition at 16 µg/mL: NB4, 16 μg/mL compound, 72 h, read-out: IR (inhibition rate); for IC50: NB4, 72 h, MTT
Source text: as §1, §2, §3

Hela = experiment: MTT solid tumor cell proliferation inhibition, Hela; type: cell-based, human; conditions: Homo sapiens, Hela, 72 h; for inhibition at 16 µg/mL: 16 μg/mL compound, read-out: IR (inhibition rate); for IC50: MTT
Protocol: as §4, §5

CNE = experiment: MTT solid tumor cell proliferation inhibition, CNE; type: cell-based, human; conditions: Homo sapiens, CNE, 72 h; for inhibition at 16 µg/mL: 16 μg/mL compound, read-out: IR (inhibition rate); for IC50: MTT
Protocol: as §4, §5

RKO = experiment: MTT solid tumor cell proliferation inhibition, RKO; type: cell-based; conditions: Homo sapiens, 72 h; for inhibition at 16 µg/mL: 16 μg/mL compound, read-out: IR (inhibition rate); for IC50: MTT
Protocol: as §4, §5

CaES-17 = experiment: MTT solid tumor cell proliferation inhibition, CaES-17; type: cell-based, human; conditions: Homo sapiens, CaEs17; for inhibition at 16 µg/mL: CaES-17, 16 μg/mL compound, 72 h, read-out: IR (inhibition rate); for IC50: CaES-17, 72 h, MTT
Protocol: as §4, §5

MG 63 = experiment: MTT solid tumor cell proliferation inhibition, MG 63; type: cell-based, human; conditions: for IC50: Homo sapiens, MG 63, 72 h, MTT; for IR (inhibition rate): MG 63, 16 μg/mL compound, 72 h
Protocol: as §4, §5

U87 MG = experiment: MTT solid tumor cell proliferation inhibition, U87 MG; type: cell-based, human; conditions: Homo sapiens, U-87 MG, U87 MG, 72 h; for inhibition at 16 µg/mL: 16 μg/mL compound, read-out: IR (inhibition rate); for IC50: MTT
Protocol: as §4, §5

PC-3 = experiment: MTT solid tumor cell proliferation inhibition, PC-3; type: cell-based, human; conditions: Homo sapiens; for inhibition at 16 µg/mL: PC-3, 16 μg/mL compound, 72 h, read-out: IR (inhibition rate); for IC50: PC-3, 72 h, MTT
Protocol: as §4, §5

Hep G2 = experiment: MTT solid tumor cell proliferation inhibition, Hep G2; type: cell-based; conditions: Homo sapiens, HepG2; for inhibition at 16 µg/mL: Hep G2, 16 μg/mL compound, 72 h, read-out: IR (inhibition rate); for IC50: Hep G2, 72 h, MTT
Protocol: as §4, §5

MGC803 = experiment: MTT solid tumor cell proliferation inhibition, MGC803; type: cell-based, human; conditions: Homo sapiens, MGC-803; for inhibition at 16 µg/mL: MGC803, 16 μg/mL compound, 72 h, read-out: IR (inhibition rate); for IC50: MGC803, 72 h, MTT
Protocol: as §4, §5

Hep-2 = experiment: MTT solid tumor cell proliferation inhibition, Hep-2; type: cell-based, human; conditions: Homo sapiens; for inhibition at 16 µg/mL: Hep-2, 16 μg/mL compound, 72 h, read-out: IR (inhibition rate); for IC50: Hep-2, 72 h, MTT
Protocol: as §4, §5

PANC-1 = experiment: MTT solid tumor cell proliferation inhibition, PANC-1; type: cell-based, human; conditions: Homo sapiens; for inhibition at 16 µg/mL: PANC-1, 16 μg/mL compound, 72 h, read-out: IR (inhibition rate); for IC50: PANC-1, 72 h, MTT
Protocol: as §4, §5

K562/adr = experiment: MTT leukemia cell proliferation inhibition, K562/adr; type: cell-based; conditions: Homo sapiens, 72 h; for inhibition at 16 µg/mL: 16 μg/mL compound, read-out: IR (inhibition rate); for IC50: MTT
Source text: as §1, §2, §3

Becap37 = experiment: MTT solid tumor cell proliferation inhibition, Becap37; type: cell-based; conditions: Homo sapiens; for inhibition at 16 µg/mL: Becap37, 16 μg/mL compound, 72 h, read-out: IR (inhibition rate); for IC50: Becap37, 72 h, MTT
Protocol: as §4, §5

H9 = experiment: MTT leukemia cell proliferation inhibition, H9; type: cell-based, human; conditions: Homo sapiens; for inhibition at 16 µg/mL: H9, 16 μg/mL compound, 72 h, read-out: IR (inhibition rate); for IC50: H9, 72 h, MTT
Source text: as §1, §2, §3

A549 = experiment: MTT solid tumor cell proliferation inhibition, A549; type: cell-based, human; conditions: Homo sapiens; for inhibition at 16 µg/mL: A549, 16 μg/mL compound, 72 h, read-out: IR (inhibition rate); for IC50: A549, 72 h, MTT
Protocol: as §4, §5

RPMI8226 = experiment: MTT multiple myeloma cell proliferation inhibition, RPMI8226; type: cell-based; conditions: Homo sapiens, RPMI-8226; for inhibition at 16 µg/mL: RPMI8226, 16 μg/mL compound, 72 h, read-out: IR (inhibition rate); for IC50: RPMI8226, 72 h, MTT
Protocol: Multiple myeloma cell lines: RPMI8226 (multiple myeloma), purchased from Fuxiang Bio-tech Co. Ltd., Shanghai, China.
as §3

Jurkat = experiment: MTT leukemia cell proliferation inhibition, Jurkat; type: cell-based; conditions: Homo sapiens, 72 h; for inhibition at 16 µg/mL: 16 μg/mL compound, read-out: IR (inhibition rate); for IC50: MTT
Source text: as §1, §2, §3

Row | Compound | inhibition at 16 µg/mL (Kasumi-1) | IC50 (Kasumi-1) | inhibition at 16 µg/mL (SK-OV-3) | IC50 (SK-OV-3) | inhibition at 16 µg/mL (NB4) | IC50 (NB4) | inhibition at 16 µg/mL (Hela) | IC50 (Hela) | inhibition at 16 µg/mL (CNE) | IC50 (CNE) | inhibition at 16 µg/mL (RKO) | IC50 (RKO) | inhibition at 16 µg/mL (CaES-17) | IC50 (CaES-17) | IC50 (MG 63) | IR (inhibition rate) (MG 63) | inhibition at 16 µg/mL (U87 MG) | IC50 (U87 MG) | inhibition at 16 µg/mL (PC-3) | IC50 (PC-3) | also measured
1 | CC1(C)CC[C@]2(C(=O)O)CC[C@]3(C)C(=CC[C@@H]4[C@@]5(C)CC[C@H](O)C(C)(C)[C@@H]5CC[C@]43C)[C@@H]2C1 [OA, Oleanolic acid] | 17.2% | > 16 µg/mL | 8.3% | > 16 µg/mL | 17.2% | > 16 µg/mL | 22.9% | > 16 µg/mL | 33.9% | > 16 µg/mL | 14.3% | > 16 µg/mL | 27.4% | > 16 µg/mL | > 16 µg/mL | 29.2% | 21.8% | > 16 µg/mL | 29.1% | > 16 µg/mL | inhibition at 16 µg/mL (Hep G2): -18.5%; IC50 (Hep G2): > 16 µg/mL; inhibition at 16 µg/mL (MGC803): 19.7%; IC50 (MGC803): > 16 µg/mL; inhibition at 16 µg/mL (Hep-2): 9.8%; IC50 (Hep-2): > 16 µg/mL; inhibition at 16 µg/mL (PANC-1): 8.5%; IC50 (PANC-1): > 16 µg/mL; inhibition at 16 µg/mL (K562/adr): 26.5%; IC50 (K562/adr): > 16 µg/mL; inhibition at 16 µg/mL (Becap37): 23.4%; IC50 (Becap37): > 16 µg/mL; inhibition at 16 µg/mL (H9): 22.8%; IC50 (H9): > 16 µg/mL; inhibition at 16 µg/mL (A549): 5%; IC50 (A549): > 16 µg/mL; inhibition at 16 µg/mL (RPMI8226): 2.2%; IC50 (RPMI8226): > 16 µg/mL; inhibition at 16 µg/mL (Jurkat): 9.4%; IC50 (Jurkat): > 16 µg/mL
2 | COc1cccc(C(=O)N[C@]23CCC(C)(C)C[C@H]2C2=CC[C@@H]4[C@@]5(C)CC[C@H](O)C(C)(C)[C@@H]5CC[C@@]4(C)[C@]2(C)CC3)c1 [BS-OA-103] | 19.9% | > 16 µg/mL | 17.2% | > 16 µg/mL | 48.5% | 16 µg/mL (≈ 28.5 µM) | 38.4% | > 16 µg/mL | 26% | > 16 µg/mL | -11.7% | > 16 µg/mL | -5.9% | > 16 µg/mL | > 16 µg/mL | −25.4% | 3.7% | > 16 µg/mL | 24.5% | > 16 µg/mL | inhibition at 16 µg/mL (Hep G2): 8%; IC50 (Hep G2): > 16 µg/mL; inhibition at 16 µg/mL (MGC803): 7%; IC50 (MGC803): > 16 µg/mL; inhibition at 16 µg/mL (Hep-2): 10.6%; IC50 (Hep-2): > 16 µg/mL; inhibition at 16 µg/mL (PANC-1): 33.7%; IC50 (PANC-1): > 16 µg/mL; inhibition at 16 µg/mL (K562/adr): 87.3%; IC50 (K562/adr): 5.7 µg/mL (≈ 10.1 µM); inhibition at 16 µg/mL (Becap37): 4.6%; IC50 (Becap37): > 16 µg/mL; inhibition at 16 µg/mL (H9): 34.1%; IC50 (H9): > 16 µg/mL; inhibition at 16 µg/mL (A549): 29.8%; IC50 (A549): > 16 µg/mL; inhibition at 16 µg/mL (RPMI8226): 90.2%; IC50 (RPMI8226): 9.63 µg/mL (≈ 17.1 µM); inhibition at 16 µg/mL (Jurkat): -2.5%; IC50 (Jurkat): > 16 µg/mL
